Laboratory results as given in patent publication US11406714B2, “Telodendrimers and nanocarriers and methods of using same” (The Research Foundation for the State University of New York, priority 2013, dated 2022).
Entries after “also recorded” stand apart in the source; their conditions may differ.

Experiments:
[1] = Maximum tolerated dose (MTD) study; format: in vivo
Description: FIG. 24. An example of body weight lost for an animal treated with DOX loaded PEG^5kCA4-L-Rh4 at different dosage level, as well as the empty micelles for the test of the MTD studies. Among, the 15 mg/Kg dosage was repeated at day 0 and day 4 to study the MTD of multiple dosages.

Raji lymphoma xenograft [2] = experiment: In vivo cancer treatment; parameters: species or system nude mice; settings: 10 mg/kg, days 0, 4 and 8, intravenous
Description: (§1) Female athymic nude mice (Nu/Nu strain), 6-8 weeks age, were purchased from Harlan. All animals were kept under pathogen-free conditions according to AAALAC (Association for Assessment and Accreditation of Laboratory Animal Care) guidelines and were allowed to acclimatize for at least 4 days prior to any experiments. All animal experiments were performed in compliance with institutional guidelines and according to protocol approved by the Committee for the Humane Use of Animals of State University of New York Upstate Medical University. Subcutaneous tumor xenograft mouse models were established by injecting 1×10^7 HT-29 or raji cancer cells in a 100 μL of mixture of PBS and Matrigel (1:1 v/v) subcutaneously at the right flank in female nude mice.
Subcutaneous Raji lymphoma xenograft mouse model was used to evaluate the therapeutic efficacy of different formulations of DOX. […] Tumor sizes were measured with a digital caliper twice per week. Tumor volume was calculated by the formula (L×W^2)/2, where L is the longest, and W is the shortest in tumor diameters (mm). To compare between groups, relative tumor volume (RTV) was calculated at each measurement time point (where RTV equals the tumor volume at given time point divided by the tumor volume prior to initial treatment). […]

[3] = tested on: HT-29 colon cancer xenografts; experiment: In vivo and ex vivo NIRF imaging and biodistribution; parameters: species or system nude mice
Description: as §1
(§2) Nude mice with subcutaneous tumors of an approximate 8 to 10 mm in diameter were subjected to in vivo NIRF optical imaging. At different time points post-injection of DiD and chemodrug (PTX or DOX or GA) co-loaded micelles (the mass ratio of DiD and PTX within nanocarrier was […]), mice were scanned using a IVIS-200 small animal imager at cy5.5 excitation and emission channels. The mice were anaesthetized by isofluorane gas before and during each imaging. After in vivo imaging, animals were euthanized by CO2 overdose after the last in vivo imaging. Tumors and major organs were excised and imaged with the IVIS-200 small animal imager.

Raji lymphoma xenograft [4] = experiment: as above; parameters: species or system nude mice; settings: tail vein injection
Description: as §1, §2

In the case of `COc1cccc2c1C(=O)c1c(O)c3c(c(O)c1C2=O)C[C@@](O)(C(=O)CO)C[C@@H]3O[C@H]1C[C@H](N)[C@H](O)[C@H](C)O1` [DOX, Doxorubicin], the “MTD of free DOX” value [1] was 10 mg/kg and the Tumor response (Raji lymphoma xenograft [2]) was “the cancer progression was slowed down”.
In the case of `CCCCCCCCCCCCCCCCCCN1C(=CC=CC=CC2=[N+](CCCCCCCCCCCCCCCCCC)c3ccccc3C2(C)C)C(C)(C)c2ccccc21.[O-][Cl+3]([O-])([O-])[O-]` [DiD, 1,1′-dioctadecyl-3,3,3′,3′-tetramethylindodicarbocyanine perchlorate], the “Ex vivo biodistribution of fluorescence signal” value ([3]; after last in vivo imaging) was “high uptake in liver, lung and spleen and low uptake in tumor; also recorded: high uptake of fluorescent signal in spleen and lung”, the “In vivo tumor targeting (fluorescence imaging)” value ([3]; tail vein injection, DiD signal) was “nonspecific binding and low tumor uptake” and the “Biodistribution of fluorescence signal” value (Raji lymphoma xenograft [4]) was “high fluorescent uptake in the liver, lung and spleen and weak signal in the tumor”.
